The values below come from patent US8598122B2, “Antagonistic peptides for frizzled-1 and frizzled-2” (Universiteit Maastricht, priority 2009, dated 2013).

“Also recorded” adds a separate entry of the source. Where a SMILES comes first, the peptide text is derived from it.

One data set has as its system C-FIT cells. In words: Differentiation assay (α-SMA) with C-FIT cells. It is filed as cell-based, rat. The source says: For this assay, we used the same C-FIT cells as for the migration assay to study a second component of wound healing, namely, differentiation of fibroblasts into myofibroblasts. When wound healing starts, cells called fibroblasts migrate into the scar. These cells have no contractile properties; however, they can differentiate into myofibroblasts, which can actively contract. To study which signals influence the transition from fibroblast into myofibroblasts, we treated the C-FIT cells and harvested them for mRNA isolation. Next, we tested them for the presence of specific markers for myofibroblasts by reverse transcription of the mRNA and subsequent quantitative PCR analysis, which are absent in fibroblasts. One of those markers is α-smooth muscle actin, which makes the cells contract.
RNA was isolated using the Trizol method (Invitrogen). For the RT-PCR, the RNA was transcribed to cDNA with iscript™ cDNA synthesis kit (Bio-Rad, Hercules Calif., USA), Syber green (Eurogentec, Ghent, Belgium) was used for the detection of cDNA levels and cyclophilin served as the house keeping gene. In Supplementary methods panel 5, the primer sequences are shown.

Another data set concerns the target T1, mouse Fzd-2 (Mus musculus, UniProt Q9JIP6).
T1 construct: expressed in transfected cells
In words: Antagonism of Wnt3a activation of mouse Fzd-2 (data not shown). It counts as cell-based. The source says:
(§1) In FIG. 3, Panel E, the efficacy of UM206 to block the Wnt3a-induced activation of luciferase activity in HEK293 superTOPflash cells transfected with different Fzds is shown.

For a further data set, the system named is frizzled receptor. Put plainly: Activity on the frizzled receptor (activity assay of Example 1), result in words. It counts as cell-based. The protocol:
Human embryonic kidney (HEK) cells were used for screening. These cells have a luciferase construct stably transfected into the genome (see FIG. 2A), such that when the frizzled receptor is activated and β-catenin is increased, the luciferase is activated by transcription and light can be measured.
The peptides were tested by transfecting the frizzled-1 or the frizzled-2 receptor and addition of UM206(S-S) to the cell culture. For testing antagonistic activity, UM206 was added and the natural ligand Wnt3a was added, which is a natural stimulus for the canonical pathway.
Analogues of UM206 were prepared by solid phase peptide synthesis. Each amino acid residue was sequentially replaced by an alanine residue and antagonistic activity of the analogue was tested as described in the activity assay of Example 1. […] Titles indicate which amino acid residue was substituted by an alanine residue.

Data set [1] in a line: Pharmacokinetics assay in mice.
Procedure: (§2) UM206 was injected into the femoral artery of Swiss mice (concentration of 10^−9 M). Blood was sampled at different time points in the femoral vein. On the y-axis, the concentration of UM206 in the plasma is shown. This is determined with HPLC and the area under the peak is calculated and shown on the y-axis. All values were corrected for the baseline value.
(§3) In order to determine the pharmacokinetic properties of UM206, we injected 15 ng of the compound into the tail vein of mice and monitored the concentration in the blood at different time points.
(§4) Male Swiss mice were used (10-12 weeks of age, Charles River, Maastricht, The Netherlands).
(§5) Blood samples were collected from the animals for the pharmacokinetics and after 14 to 35 days treatment, to determine the concentration of UM206. Blood was centrifuged and the plasma was treated with 1% TFA.
The conditions of data set [2]: mouse, in vivo.
Procedure: as §2, §3, §4, §5
A further data set has as its target T2, human Fzd-2 (Homo sapiens, UniProt Q14332).
T2 construct: expressed in transfected cells
In words: Antagonism of Wnt3a activation of human Fzd-2 (data not shown). It is filed as cell-based.
Excerpt: as §1

In data set [3] the test system is C-FIT cells (cardiac fibroblasts immortalized with telomerase). Put plainly: Migration (wound/scratch) assay with C-FIT cells overexpressing Fzd-1 or -2. It counts as cell-based, rat. The protocol:
For this assay, we used rat cardiac fibroblasts, which were immortalized with telomerase, the C-FIT cell line. This cell line was characterized previously and resembles features of primary cardiac fibroblasts. C-FIT cells were plated, treated when they were 70% confluent and a wound was made with a pipette tip at the moment of 100% confluence.
This assay was first tested with the natural ligand Wnt3a, in combination with frizzled-1 and -2 overexpression. […] Next step was to see whether the antagonist could counteract this. (See FIG. 4.)
Day 1: • Plate cells in 12-well plates
Day 2: • Transfection (see protocol)
Day 3: • Addition of conditioned medium
Day 4: • Make a scratch. This is time point zero.
Making pictures every six hours and analyzing the scratch width.
Cells were plated on day 0, and cultured until 70% confluence before transfection or treatment. Migration assays started 48 hours after transfection and/or treatment. The time point where the scratch was made, is indicated as 0 hours. Scratch width was measured at this time point, and also after 6, 12, and 24 hours.

T2 sequence (Q14332 24-565): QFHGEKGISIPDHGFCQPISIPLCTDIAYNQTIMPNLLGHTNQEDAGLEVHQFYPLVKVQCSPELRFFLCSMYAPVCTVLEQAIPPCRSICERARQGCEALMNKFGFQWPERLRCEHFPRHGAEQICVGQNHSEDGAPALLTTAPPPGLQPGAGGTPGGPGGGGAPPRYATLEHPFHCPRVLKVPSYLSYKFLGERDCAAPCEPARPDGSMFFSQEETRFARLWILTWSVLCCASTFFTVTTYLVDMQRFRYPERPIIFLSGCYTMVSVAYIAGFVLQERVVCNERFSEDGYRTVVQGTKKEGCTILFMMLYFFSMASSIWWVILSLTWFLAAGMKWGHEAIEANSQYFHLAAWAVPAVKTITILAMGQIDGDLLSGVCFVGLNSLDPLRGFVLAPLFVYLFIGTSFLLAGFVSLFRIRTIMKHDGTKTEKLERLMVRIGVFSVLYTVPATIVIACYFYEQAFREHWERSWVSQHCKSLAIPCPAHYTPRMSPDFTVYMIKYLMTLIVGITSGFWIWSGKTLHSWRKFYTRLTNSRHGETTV
T1 sequence (Q9JIP6 29-570): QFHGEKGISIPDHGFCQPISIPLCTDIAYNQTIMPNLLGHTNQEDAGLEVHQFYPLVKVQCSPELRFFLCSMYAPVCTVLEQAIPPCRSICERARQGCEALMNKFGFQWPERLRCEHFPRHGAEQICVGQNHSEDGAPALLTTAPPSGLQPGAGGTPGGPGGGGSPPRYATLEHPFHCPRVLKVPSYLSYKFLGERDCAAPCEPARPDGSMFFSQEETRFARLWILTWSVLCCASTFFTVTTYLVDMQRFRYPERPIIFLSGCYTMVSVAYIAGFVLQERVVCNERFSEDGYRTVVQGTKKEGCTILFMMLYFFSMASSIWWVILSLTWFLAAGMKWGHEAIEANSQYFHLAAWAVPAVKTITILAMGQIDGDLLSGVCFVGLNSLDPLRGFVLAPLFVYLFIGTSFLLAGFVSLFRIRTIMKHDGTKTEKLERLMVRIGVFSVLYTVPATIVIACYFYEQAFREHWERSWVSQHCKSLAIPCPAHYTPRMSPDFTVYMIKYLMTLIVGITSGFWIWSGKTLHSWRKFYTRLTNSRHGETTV

Broadly, the half-life is the time needed for the level to fall by half in the phase considered. A low value points to rapid decline. For `CSCC[C@H](NC(=O)CNC(=O)[C@H](CCC(=O)O)NC(=O)[C@H](CO)NC(=O)[C@@H](NC(=O)[C@H](CCCCN)NC(=O)[C@H](CC(N)=O)NC(=O)[C@H](CS)NC(C)=O)[C@@H](C)O)C(=O)N[C@@H](CC(=O)O)C(=O)NCC(=O)N[C@@H](CS)C(=O)N[C@@H](CCC(=O)O)C(=O)N[C@@H](CC(C)C)C(N)=O` [UM206, Ac-Cys-Asn-Lys-Thr-Ser-Glu-Gly-Met-Asp-Gly-Cys-Glu-Leu-NH2] (Ac-CNKTSEGMDGCEL-NH2), the “Effect on Wnt3a/5a-induced differentiation (α-SMA levels)” value in the data set on C-FIT cells was “completely blocks this differentiation”. The “Antagonizing activation of mouse Fzd-2 by Wnt3a” value on mouse Fzd-2 is listed as “fully effective”. Besides, the “Activity on the frizzled receptor (in words)” value in the data set with frizzled receptor is given as “very potent antagonist”. The “IC50 (range in words)” value at frizzled receptor is “in the nanomolar range”. Also, the half-life in data set [1] (15 ng into the tail vein of mice, HPLC, n=24) is 1.39 h; in data set [1] (male, Swiss, mouse, plasma) it was about 1.5 h; in data set [1] (male, Swiss, mouse, plasma, intravenous, 15 ng) it was 1.39 ± 0.0272 h. In addition, in data set [2], the “time until steady state is reached” value was about 10 h. The “Antagonizing activation of human Fzd-2 by Wnt3a” value at human Fzd-2 was “fully effective”. Also, the “effect of UM206 alone on cell migration” value in data set [3] is “no effect”. For the same compound, in data set [3] (UM206 1.10^−8 M, Fzd-1 or -2 overexpression), the “Counteraction of Wnt3a/Wnt5a-induced attenuation of migration” value was “migration was reset to the migration speed of the control; also recorded: blocked completely; also recorded: block this effect completely”.
